Measurements from patent US7598244B2, “[1,2,4]triazolo[1,5,a]pyrimidin-2-ylurea derivative and use thereof” (Nippon Kayaku Kabushiki Kaisha, priority 2003, dated 2009).

Columns and labels:
Format in all cases: cell-based
MHC class I = assay: Expression of antigen-presenting and costimulatory molecules of human peripheral blood-derived dendritic cells: MHC class I
Protocol: Action on Expression of Antigen-Presenting Molecules and Costimulatory Molecules of Human Peripheral Blood-Derived Dendritic Cells
The dendritic cells obtained by the same method as in Test Example 2 were suspended in RPMI 1640 comprising 10% FCS containing 500 U/ml GM-CSF, 50 ng/ml IL-4, and 100 U/ml human recombinant tumor necrosis factor (2.5×10^6 cells/ml). Thereafter, the suspension was inoculated into a 6-well plate at an amount of 2.0 ml/well, and the test compound was then added thereto. The mixture was cultured at 37° C. for 3 days in an incubator containing 5% carbon dioxide. Thereafter, the suspended cells were recovered. The cells were then stained with fluoroisothiocyanate-labeled mouse monoclonal antibodies reacting with MHC class I (Bechman Coulter), CD1a (Immunotech), CD40 (Pharmingen), CD80 (Pharmingen), and CD83 (Immunotech). Thereafter, mean fluorescence intensity and the ratio of positive cells were measured by flow cytometry. The expression level was calculated by the formula “the mean fluorescence intensity x the ratio of positive cells,” and the inhibition rate of the surface antigen expression level of dendritic cells was then obtained by the following formula (8).
[formula] • Eexp: Expression level of surface antigens of dendritic cells cultured in the presence of test compound • Cexp: Expression level of surface antigens of dendritic cells cultured in the absence of test compound

[1] = test system: MHC class I molecules of human peripheral blood-derived dendritic cells; assay: Effect on expression of MHC class I molecules from human peripheral blood-derived dendritic cells; conditions: dendritic cells matured with TNF-α, 3 days; read-out: EC50 (reduction of 50% of the number of cells wherein MHC class I molecules were highly expressed)
Outline: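 Human blood CD14+ monocytes differentiated 7 days with GM-CSF 500 U/ml and IL-4 50 ng/ml into immature dendritic cells. These were matured with 100 U/ml TNF-α plus test compound for 3 days at 37 °C. MHC class I-high fraction measured by flow cytometry (W6/32 antibody); EC50 is concentration giving 50% reduction versus untreated.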

MHC class II = assay: Expression of antigen-presenting and costimulatory molecules of human peripheral blood-derived dendritic cells: MHC class II
[2] = test system: human dendritic cells cultured with human allogenic T cells; assay: Effect on the ability of human dendritic cells to induce the growth of allogenic T cells ([3H]-thymidine incorporation); conditions: Homo sapiens; dendritic cells treated 3 days with test compound and TNF-α, then 5 days with allogenic T cells; read-out: IC50 (inhibition of DNA synthesis of lymphocytes)
Outline: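 Immature human dendritic cells matured 3 days with compound plus TNF-α, then co-cultured with allogeneic T cells (2.5×10^3 DC : 2.0×10^5 T per well) for 5 days at 37 °C, 5% CO2. [3H]-thymidine added for the final 16 h; incorporation counted, inhibition versus compound-free cultures, IC50 derived.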

For `CC(C)NC(=O)Nc1nc2nccc(-c3cccs3)n2n1` [Example 029, 1-isopropyl-3-(7-thiophen-2-yl[1,2,4]triazolo[1,5-a]pyrimidin-2-yl)urea], the “Expression inhibition rate by test compound (%), MHC class I” value (MHC class I; Analyte 1, 3 days) was 72.3%, the “Expression inhibition rate by test compound (%), MHC class I” value (MHC class I; Analyte 2, 3 days) was 63.9% and the “Expression inhibition rate by test compound (%), MHC class I” value (MHC class I; Analyte 3, 3 days) was 72.6%. The EC50 [1] was 480 nM, the “Expression inhibition rate by test compound (%), MHC class II” value (MHC class II; Analyte 1, 3 days) was 65.6% and the “Expression inhibition rate by test compound (%), MHC class II” value (MHC class II; Analyte 2, 3 days) was 93.3%. For the same molecule, the “Expression inhibition rate by test compound (%), MHC class II” value (MHC class II; Analyte 3, 3 days) was 50.2% and the IC50 [2] was 3.48 µM.
